In US12187816B2, “Macrocyclic compounds and methods of use thereof” (Genentech, Inc., priority 2020, dated 2025):
Starred links: 1 amine or outer side, 2 acyl side, 3 side chain; linkers in the order of their positions; H or OH if unused. Positions of bridges follow the written chain, without caps; N, C: chain ends. Non-standard residues stand in square brackets, D forms with d. Residues, ends and D or L forms follow the SMILES beside them. *: point of attachment. X14 = Cn1cc2c3c(c[nH]c3c1=O)CN(c1ncc(F)cc1F)c1cc(C(=O)*)c(CS(C)(=O)=O)cc1-2; X11 = CC(=O)N1c2ccc(-c3ccc(C(=O)*)cc3)cc2[C@H](Nc2ccc(Cl)cc2)C[C@@H]1C; JQ1acid = Cc1sc2c(c1C)C(c1ccc(Cl)cc1)=N[C@@H](CC(=O)*)c1nnc(C)n1-2; dPhg(4-(4-Me-thiazol-5-yl)) = Cc1ncsc1-c1ccc([C@@H](N)C(=O)O)cc1; Phg(4-(4-Me-thiazol-5-yl)) = Cc1ncsc1-c1ccc([C@H](N)C(=O)O)cc1; dDap(Me) = CN(C[C@@H](N[*:1])C(=O)[*:2])[*:3]; Bip = N[C@@H](Cc1ccc(-c2ccccc2)cc1)C(=O)O; X5 = O=C([C@@H](Cc1ccc(Br)s1)N[*:1])[*:2]; X7 = O=C([C@H](Cc1ccc(Br)s1)N[*:1])[*:2]; X4 = O=C([C@H]1CN([*:3])CCN1[*:1])[*:2]; cisHyp = O=C(O)[C@@H]1C[C@H](O)CN1; Hyp = O=C(O)[C@@H]1C[C@@H](O)CN1; d(β3hK) = NCCCC[C@@H](N)CC(=O)O; Tle = CC(C)(C)[C@H](N)C(=O)O; dDap = NC[C@@H](N)C(=O)O; PEG1 = NCCOCCC(=O)O; AEA = NCCOCC(=O)O

What follows are compounds tested against T1, BRD4 (Homo sapiens, UniProt O60885) (assay: BRD4 degradation assay in EOL1 cells (immunofluorescence imaging)). Settings: EoL-1 eosinophilic leukemia cells, 4 hours treatment, nuclear BRD4 immunofluorescence.
T1 construct: Mean 488 intensity of BRD4 quantitated in nuclear region; endogenous in cells; host or cells: EoL-1 eosinophilic leukemia cells
Assay type: cell-based
Protocol: BRD4 Degradation Assay in EOL1 Cells
EoL-1 eosinophilic leukemia cells were seeded on day 1 at a density of 45,000 cells per well in Corning PureCoat Amine Microplates, (Corning #354719) in 45 μL/well of assay media (RPMI, 10% FBS, containing L-glutamine). After cells attached to cell plate, compounds were serially diluted ⅓ in dimethylsulfoxide (DMSO) to create 20-point dilutions across a 384 well v-bottom polypropylene microplate (Greiner #781091). 2 μL of each sample from the serial dilution was transferred to 98 μL of assay media as an intermediate dilution. 5 μL of each well of the intermediate dilution was added to 45 μL of cell plate. Columns 1, 2, 23 and 24 were treated with only 0.2% final concentration of DMSO for data normalization as “neutral controls”. After compound treatment, cell plates were stored in a 37° C. incubator for 4 hours. After 4 hours cells were fixed in 3.7% w/v final concentration of paraformaldehyde by addition of 15 μL of 16% w/v paraformaldehyde (Electron Microscopy Sciences #15710-S) directly to the 50 μL media and compound in the cell plate. Cell plate was incubated at RT for 20 minutes. Well contents were aspirated and washed with 100 μL/well PBS 3 times. 50 ul/well of phosphate Buffered Saline (PBS) (pH 7.5) containing 0.5% w/v bovine serum albumen, 0.5% w/v Triton X-100 (Block/Permeabilization Buffer) was added to each well. Samples were incubated for 20 minutes. Well contents were aspirated and washed 3 times with 100 μL/well of PBS. PBS was aspirated from the well and 50 μL per well of EoL-1 Block Buffer (PBS containing 10% Normal Goat Serum (AbCam #ab7481)) was added to each well. Plates were incubated at room temperature for 30 minutes. Block buffer was decanted from the wells. Immunofluorescence staining of BRD4 was carried out by diluting mAB Anti-BRD4 [EPR5150] antibody (Abcam 128874) 1:500 into Antibody Dilution Buffer (PBS, 2% Normal Goat Serum). 25 μL per well of BRD4 antibody diluted in buffer was added and incubated overnight at 4° C.
On day-2 samples were washed 3 times with 100 μL/well of PBS. 25 μL/well of secondary antibody solution (Goat Anti-Rabbit IgG, DyLight 488 Conjugated Highly Cross-adsorbed Thermo Fisher #35553) and Hoechst 33342 1 μg/ml diluted in Antibody Dilution Buffer) were dispensed into each well. Hoechst 33342 only was added to bottom 3 columns for data normalization as “inhibitor controls”. Samples were incubated for 2 hours at room temperature. Samples were washed 3 times with 100 μL PBS. Quantitative fluorescence imaging of BRD4 was carried out using an Opera Phenix High-Content Screening System. Fluorescent images of the samples were captured using 488 nm and 405 nm channels. Hoechst channel was used to identify nuclear region. Mean 488 intensity of BRD4 quantitated in nuclear region. Data analysis was carried out using Genedata Screener, with DMSO and no primary antibody control treated samples being used to define the 0% and 100% changes in BRD4. The dose-response log(inhibitor) vs. response used to define the inflexion point of curve (DC50) and the plateau of the maximal effect.
The individual topological polar surface area (TPSA) and cLogP values were calculated using Chemdraw v. 15.1 (PerkinElmer). Half life of the ternary VHL/BD1 and VHL/BD2 complexes, DC50 of BRD4 in EOL1 cells, topological polar surface area of a molecule (TPSA) and c log P (lipophilicity) for compounds described herein are provided in Table 3.

| Compound | DC50 [µM] |
| --- | --- |
| Cc1sc2c(c1C)C(c1ccc(Cl)cc1)=N[C@@H](CC(=O)NC[C@H]1NC(=O)CNC(=O)[C@H](Cc3ccc(-c4ccccc4)cc3)NC(=O)[C@@H]3C[C@@H](O)CN3C(=O)[C@H](C(C)(C)C)NC(=O)CSC[C@H](C(N)=O)NC1=O)c1nnc(C)n1-2 [Compound 19] ({CH2CO}-[Tle][Hyp][Bip]G[dDap](JQ1acid)[dC]-NH2; thioether N-6) | < 20 |
| Cc1sc2c(c1C)C(c1ccc(Cl)cc1)=N[C@@H](CC(=O)NC[C@H]1NC(=O)CNC(=O)[C@H](Cc3ccc(Br)s3)NC(=O)[C@@H]3C[C@@H](O)CN3C(=O)[C@H](C(C)(C)C)NC(=O)CSC[C@H](C(N)=O)NC1=O)c1nnc(C)n1-2 [Compound 20] ({CH2CO}-[Tle][Hyp][X7]G[dDap](JQ1acid)[dC]-NH2; thioether N-6) | < 1 |
| CC(=O)N1c2ccc(-c3ccc(C(=O)NC[C@H]4NC(=O)CNC(=O)[C@@H](c5ccc(-c6scnc6C)cc5)NC(=O)[C@@H]5C[C@@H](O)CN5C(=O)[C@H](C(C)(C)C)NC(=O)CSC[C@H](C(N)=O)NC4=O)cc3)cc2[C@H](Nc2ccc(Cl)cc2)C[C@@H]1C [Compound 21] ({CH2CO}-[Tle][Hyp][dPhg(4-(4-Me-thiazol-5-yl))]G[dDap](X11)[dC]-NH2; thioether N-6) | > 20 |
| Cc1ncsc1-c1ccc([C@H]2NC(=O)[C@@H]3C[C@@H](O)CN3C(=O)[C@H](C(C)(C)C)NC(=O)CSC[C@H](C(N)=O)NC(=O)[C@@H](CNC(=O)c3cc4c(cc3CS(C)(=O)=O)-c3cn(C)c(=O)c5[nH]cc(c35)CN4c3ncc(F)cc3F)NC(=O)CNC2=O)cc1 [Compound 22] ({CH2CO}-[Tle][Hyp][dPhg(4-(4-Me-thiazol-5-yl))]G[dDap](X14)[dC]-NH2; thioether N-6) | > 20 |
| Cc1sc2c(c1C)C(c1ccc(Cl)cc1)=N[C@@H](CC(=O)NC[C@H]1NC(=O)CNC(=O)[C@@H](Cc3ccc(Br)s3)NC(=O)[C@@H]3C[C@@H](O)CN3C(=O)[C@H](C(C)(C)C)NC(=O)CSC[C@H](C(N)=O)NC1=O)c1nnc(C)n1-2 [Compound 23] ({CH2CO}-[Tle][Hyp][X5]G[dDap](JQ1acid)[dC]-NH2; thioether N-6) | < 1 |
| COc1ccc(C[C@@H]2NC(=O)[C@@H]3C[C@@H](O)CN3C(=O)[C@H](C(C)(C)C)NC(=O)CSC[C@H](C(N)=O)NC(=O)[C@@H](CNC(=O)C[C@@H]3N=C(c4ccc(Cl)cc4)c4c(sc(C)c4C)-n4c(C)nnc43)NC(=O)CNC2=O)cc1 [Compound 24] ({CH2CO}-[Tle][Hyp]Y(Me)G[dDap](JQ1acid)[dC]-NH2; thioether N-6) | > 20 |
| Cc1ncsc1-c1ccc([C@H]2NC(=O)[C@@H]3C[C@@H](O)CN3C(=O)[C@H](C(C)(C)C)NC(=O)CSC[C@H](C(N)=O)NC(=O)[C@H]3CN(C(=O)C[C@@H]4N=C(c5ccc(Cl)cc5)c5c(sc(C)c5C)-n5c(C)nnc54)CCN3C(=O)CNC2=O)cc1 [Compound 25] ({CH2CO}-[Tle][Hyp][dPhg(4-(4-Me-thiazol-5-yl))]G[X4](JQ1acid)[dC]-NH2; thioether N-6) | < 20 |
| Cc1ncsc1-c1ccc([C@H]2NC(=O)[C@@H]3C[C@@H](O)CN3C(=O)[C@H](C(C)(C)C)NC(=O)CSC[C@H](C(N)=O)NC(=O)[C@@H](CNC(=O)C[C@@H]3N=C(c4ccc(Cl)cc4)c4c(sc(C)c4C)-n4c(C)nnc43)NC(=O)[C@@H](C)NC2=O)cc1 [Compound 26] ({CH2CO}-[Tle][Hyp][dPhg(4-(4-Me-thiazol-5-yl))][dA][dDap](JQ1acid)[dC]-NH2; thioether N-6) | < 1 |
| Cc1ncsc1-c1ccc([C@H]2NC(=O)[C@@H]3C[C@H](O)CN3C(=O)[C@H](C(C)(C)C)NC(=O)CSC[C@H](C(N)=O)NC(=O)[C@@H](CNC(=O)C[C@@H]3N=C(c4ccc(Cl)cc4)c4c(sc(C)c4C)-n4c(C)nnc43)NC(=O)CNC2=O)cc1 [Compound 27] ({CH2CO}-[Tle][cisHyp][dPhg(4-(4-Me-thiazol-5-yl))]G[dDap](JQ1acid)[dC]-NH2; thioether N-6) | > 20 |
| Cc1ncsc1-c1ccc([C@H]2NC(=O)[C@@H]3C[C@@H](O)CN3C(=O)[C@H](C(C)(C)C)NC(=O)CSC[C@@H](C(N)=O)NC(=O)[C@@H](CNC(=O)C[C@@H]3N=C(c4ccc(Cl)cc4)c4c(sc(C)c4C)-n4c(C)nnc43)NC(=O)CNC2=O)cc1 [Compound 28] ({CH2CO}-[Tle][Hyp][dPhg(4-(4-Me-thiazol-5-yl))]G[dDap](JQ1acid)C-NH2; thioether N-6) | > 20 |
| Cc1ncsc1-c1ccc([C@H]2NC(=O)[C@@H]3C[C@@H](O)CN3C(=O)[C@H](C(C)(C)C)NC(=O)CSC[C@H](C(N)=O)NC(=O)[C@@H](CN(C)C(=O)C[C@@H]3N=C(c4ccc(Cl)cc4)c4c(sc(C)c4C)-n4c(C)nnc43)NC(=O)CNC2=O)cc1 [Compound 29] ({CH2CO}-[Tle][Hyp][dPhg(4-(4-Me-thiazol-5-yl))]G[dDap(Me)](JQ1acid)[dC]-NH2; thioether N-6) | < 20 |
| Cc1ncsc1-c1ccc([C@@H]2NC(=O)[C@@H]3C[C@@H](O)CN3C(=O)[C@H](C(C)(C)C)NC(=O)CSC[C@H](C(N)=O)NC(=O)[C@@H](CNC(=O)C[C@@H]3N=C(c4ccc(Cl)cc4)c4c(sc(C)c4C)-n4c(C)nnc43)NC(=O)[C@@H](C)NC2=O)cc1 [Compound 31] ({CH2CO}-[Tle][Hyp][Phg(4-(4-Me-thiazol-5-yl))][dA][dDap](JQ1acid)[dC]-NH2; thioether N-6) | > 20 |
| Cc1ncsc1-c1ccc([C@H]2NC(=O)[C@@H]3C[C@@H](O)CN3C(=O)[C@H](C(C)(C)C)NC(=O)CCOCCNC(=O)[C@@H](CNC(=O)C[C@@H]3N=C(c4ccc(Cl)cc4)c4c(sc(C)c4C)-n4c(C)nnc43)NC(=O)CNC2=O)cc1 [Compound 32] (cyclo(G[dDap](JQ1acid)[PEG1][Tle][Hyp][dPhg(4-(4-Me-thiazol-5-yl))])) | > 20 |
| Cc1ncsc1-c1ccc([C@H]2NC(=O)[C@@H]3C[C@@H](O)CN3C(=O)[C@H](C(C)(C)C)NC(=O)CNC(=O)[C@H](C)NC(=O)[C@@H](CNC(=O)C[C@@H]3N=C(c4ccc(Cl)cc4)c4c(sc(C)c4C)-n4c(C)nnc43)NC(=O)CNC2=O)cc1 [Compound 33] (cyclo(AG[Tle][Hyp][dPhg(4-(4-Me-thiazol-5-yl))]G[dDap](JQ1acid))) | < 1 |
| Cc1ncsc1-c1ccc([C@@H]2NC(=O)[C@@H]3C[C@@H](O)CN3C(=O)[C@H](C(C)(C)C)NC(=O)COCCNC(=O)[C@@H](CNC(=O)C[C@@H]3N=C(c4ccc(Cl)cc4)c4c(sc(C)c4C)-n4c(C)nnc43)NC(=O)[C@H](C)NC2=O)cc1 [Compound 35] (cyclo(A[dDap](JQ1acid)[AEA][Tle][Hyp][Phg(4-(4-Me-thiazol-5-yl))])) | > 20 |
| Cc1ncsc1-c1ccc([C@H]2NC(=O)[C@@H]3C[C@@H](O)CN3C(=O)[C@H](C(C)(C)C)NC(=O)CNC(=O)C[C@@H](CCCCNC(=O)C[C@@H]3N=C(c4ccc(Cl)cc4)c4c(sc(C)c4C)-n4c(C)nnc43)NC(=O)CNC2=O)cc1 [Compound 36] (cyclo(G[Tle][Hyp][dPhg(4-(4-Me-thiazol-5-yl))]G[d(β3hK)](JQ1acid))) | > 20 |
| Cc1ncsc1-c1ccc([C@@H]2NC(=O)[C@@H]3C[C@@H](O)CN3C(=O)[C@H](C(C)(C)C)NC(=O)CNC(=O)C[C@@H](CCCCNC(=O)C[C@@H]3N=C(c4ccc(Cl)cc4)c4c(sc(C)c4C)-n4c(C)nnc43)NC(=O)CNC2=O)cc1 [Compound 37] (cyclo(G[Tle][Hyp][Phg(4-(4-Me-thiazol-5-yl))]G[d(β3hK)](JQ1acid))) | > 20 |
